Laboratory results reported in BindingDB's records for doi:10.1007/s00044-007-9043-6 (Central Drug Research Institute, 2008).

Molecular target: T1, Tyrosine-protein phosphatase non-receptor type 1 (Homo sapiens, UniProt P18031)
T1 sequence (P18031 whole entry): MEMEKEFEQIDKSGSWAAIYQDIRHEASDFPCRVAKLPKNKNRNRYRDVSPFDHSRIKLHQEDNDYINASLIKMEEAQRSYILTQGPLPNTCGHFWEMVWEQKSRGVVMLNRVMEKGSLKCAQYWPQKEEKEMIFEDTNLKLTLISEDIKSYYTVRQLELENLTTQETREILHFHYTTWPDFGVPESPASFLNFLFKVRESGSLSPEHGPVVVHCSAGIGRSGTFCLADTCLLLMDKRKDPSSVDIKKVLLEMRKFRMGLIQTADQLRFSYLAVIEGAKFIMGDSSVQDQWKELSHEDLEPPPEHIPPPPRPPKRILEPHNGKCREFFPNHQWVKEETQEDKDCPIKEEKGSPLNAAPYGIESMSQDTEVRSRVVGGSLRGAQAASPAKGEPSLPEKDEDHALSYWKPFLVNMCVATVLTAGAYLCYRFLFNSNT
Test: In Vitro Assay
Conditions: pH 7
Procedure: The effect of the test compounds on PTP1B was studied by preincubating the test compound with enzyme in the reaction system for 10 min and determining the residual enzyme activity according to the Goldstein method.

| SMILES | IC50 | Ki |
| --- | --- | --- |
| COc1cc(C=O)ccc1C1=NOC(n2ccnc2)C1 (stereo not given) [PTP1B Inhibitor, 14] | 88 µM | 63 µM |
| COc1cc(C=O)ccc1C1=NOC(c2ccccn2)C1 (stereo not given) [PTP1B Inhibitor, 12] | 485 µM | 170 µM |
| COc1cc(C=O)ccc1C1=NOC(c2ccccc2)C1 (stereo not given) [PTP1B Inhibitor, 10] | 69 µM | 48 µM |
| COc1c(C2=NOC(c3ccccn3)C2)ccc2c1C=CC(C)(C)O2 (stereo not given) [PTP1B Inhibitor, 7] | 87 µM | 34 µM |
| COc1c(C2=NOC(c3ccccc3)C2)ccc2c1C=CC(C)(C)O2 (stereo not given) [PTP1B Inhibitor, 5] | 70 µM | 30 µM |
| COc1ccc(C2CC(c3ccc4c(c3OC)C=CC(C)(C)O4)=NO2)cc1 (stereo not given) [PTP1B Inhibitor, 6] | 91 µM | 56 µM |
| COc1cc(C=O)ccc1C1=NOC(c2ccncc2)C1 (stereo not given) [PTP1B Inhibitor, 13] | 275 µM | 150 µM |
| COc1ccc(C2CC(c3ccc(C=O)cc3OC)=NO2)cc1 (stereo not given) [PTP1B Inhibitor, 11] | 67 µM | 48 µM |
| COC(=O)C1C(c2ccc(C=O)cc2OC)=NOC1c1ccccc1 (stereo not given) [PTP1B Inhibitor, 15] | 165 µM | 135 µM |
| CC(=O)Oc1ccc(C2=NOC(c3ccccc3)C2)c(OC(C)=O)c1 (stereo not given) [PTP1B Inhibitor, 19] | 62.7 µM | 25 µM |
